In ChEMBL document CHEMBL4831521, “Dual High-Resolution α-Glucosidase and PTP1B Inhibition Profiling Combined with HPLC-PDA-HRMS-SPE-NMR Analysis for the Identification of Potentially Antidiabetic Chromene Meroterpenoids from Rhododendron capitatum” (J Nat Prod, 2021):

Legend:
[1] = system: Saccharomyces cerevisiae; assay: Inhibition of Saccharomyces cerevisiae alpha-glucosidase at 100 uM using pNPG as substrate preincubated for 10 mins followed by substrate addition and measured for 35 mins by microplate photometric method; settings: time 45.0 min
[2] = target: T1, Tyrosine-protein phosphatase non-receptor type 1 (Homo sapiens, UniProt P18031); assay: Inhibition of human recombinant PTP1B (1 to 322 residues) expressed in Escherichia coli using pNPP as substrate preincubated with substrate for 10 mins followed by enzyme addition and measured for 10 mins by absorbance based analysis
T1 sequence (P18031 whole entry): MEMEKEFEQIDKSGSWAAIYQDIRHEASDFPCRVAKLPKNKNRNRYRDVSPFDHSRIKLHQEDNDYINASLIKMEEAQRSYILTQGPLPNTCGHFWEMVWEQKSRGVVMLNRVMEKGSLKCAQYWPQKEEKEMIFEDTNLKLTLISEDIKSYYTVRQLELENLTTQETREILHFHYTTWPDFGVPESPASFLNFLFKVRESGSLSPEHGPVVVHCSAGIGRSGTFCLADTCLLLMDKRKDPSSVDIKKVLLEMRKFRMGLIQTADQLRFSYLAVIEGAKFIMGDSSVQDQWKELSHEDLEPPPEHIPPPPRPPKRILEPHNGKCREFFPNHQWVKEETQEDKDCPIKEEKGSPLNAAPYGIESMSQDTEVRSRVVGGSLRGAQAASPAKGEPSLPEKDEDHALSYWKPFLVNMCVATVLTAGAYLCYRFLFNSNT

[3] = Inhibition of Saccharomyces cerevisiae alpha-glucosidase using pNPG as substrate preincubated for 10 mins followed by substrate addition and measured for 35 mins by microplate photometric method

SMILES	inhibition [1]	IC50 [2]	IC50 [3]
Cc1c(O)c(C)c2c(c1O)C(=O)C[C@@H](c1ccc(O)cc1)O2	11.2%	–	–
CC(C)=CCC/C(C)=C/CC[C@]1(C)C=Cc2c(cc(C)c(C(=O)O)c2O)O1	99.9%	2.5 µM	10.6 µM
CC(C)=CCC/C(C)=C/CC/C(C)=C/Cc1c(O)cc(C)c(C(=O)O)c1O [GRIFOLIC ACID]	99.7%	3.6 µM	8 µM
Cc1c(O)cc(O)c2c1O[C@H](c1ccc(O)cc1)CC2=O	14.4%	–	–
CO[C@@](C)(CCC=C(C)C)[C@H](O)CC[C@]1(C)C=Cc2c(cc(C)c(C(=O)O)c2O)O1 (relative stereo)	23.8%	53.6 µM	–
C[C@H]1O[C@H](O[C@H]2[C@H](O)[C@@H](O)[C@@H](O[C@H]3[C@H](O)[C@@H](O)C(O)O[C@@H]3CO)O[C@@H]2CO)[C@H](O)[C@@H](O)[C@@H]1N[C@H]1C=C(CO)[C@@H](O)[C@H](O)[C@H]1O (some centres undefined) [ACARBOSE]	–	–	796 µM

Next, values leading:

inhibition [1]	IC50 [2]	IC50 [3]	SMILES
36.9%	28.2 µM	–	C=C(C/C=C/C(C)(C)O)[C@H](O)CC[C@]1(C)C=Cc2c(cc(C)c(C(=O)O)c2O)O1
-1.8%	–	–	CC(C)=CCC[C@@](C)(O)[C@H](O)CC[C@]1(C)C=Cc2c(cc(C)c(C(=O)O)c2O)O1 (relative stereo)
99.6%	10.3 µM	21.2 µM	C=C(C)[C@H](O)CC/C(C)=C/CC[C@]1(C)C=Cc2c(cc(C)c(C(=O)O)c2O)O1
99.8%	6 µM	18.6 µM	C=C(CCC=C(C)C)[C@H](O)CC[C@]1(C)C=Cc2c(cc(C)c(C(=O)O)c2O)O1
-1.8%	–	–	CC(C)=CCC[C@](C)(O)[C@H](O)CC[C@]1(C)C=Cc2c(cc(C)c(C(=O)O)c2O)O1 (mixture of isomers)
–	68.1 µM	–	C/C(=C\CC[C@]1(C)C=Cc2c(cc(C)c(C(=O)O)c2O)O1)C/C=C\C(C)(C)O
27.5%	19.9 µM	–	C=C(C)/C=C/C/C(C)=C/CC[C@]1(C)C=Cc2c(cc(C)c(C(=O)O)c2O)O1
63.5%	36.3 µM	93.5 µM	C=C(C)[C@H](O)CCC(=C)[C@H](O)CC[C@]1(C)C=Cc2c(cc(C)c(C(=O)O)c2O)O1
17.2%	–	–	COC(C)(C)[C@H](O)CC/C(C)=C/CC[C@]1(C)C=Cc2c(cc(C)c(C(=O)O)c2O)O1
15.6%	–	–	CO[C@](C)(CCC=C(C)C)[C@H](O)CC[C@]1(C)C=Cc2c(cc(C)c(C(=O)O)c2O)O1 (mixture of isomers)
